Experimental data published in patent EP0679649B1, “2,3-Dihydrobenzofuran Derivatives” (Asahi Kasei Kogyo Kabushiki Kaisha, priority 1993, dated 1994).

What was measured:
male Wistar strain rats = assay: Anti-depression activity (forced swimming test using rats); assay type: in vivo, rat; conditions: for Time spent in immobile state: 30 minutes before test, observed for 6 minutes, 6 rats, physiological saline 200; for time spent in the immobile state (result in words): hydrochloride, 30 mg/kg and 60 mg/kg p.o.
Text: When a rat is put in a water tank, the rat struggles for its life to get out of the water (that is, the rat starts a "forced swimming"). If the rat finds that it is impossible for him to get out, the rat stops swimming and assumes an immobile state. It has been known that the administration of an antidepressant can cause a violent swimming motion in the rat for getting out of the water, with a result that the time spent in the immobile state is shortened. The shortening of the time in the immobile state of the rat in the forced swimming test by the administration of the antidepressant is well correlated to the clinical anti-depression effect. Accordingly, in developing antidepressants, the forced swimming test using a rat is the most reliable screening method. In the present test, male Wistar strain rats were used. Compounds obtained in Examples 1, 17 and 18 of the present invention (each in the form of a hydrochloride thereof) were, individually, orally administered to a rat. 30 minutes after the administration, the rat was put in a water tank and then, observed for 6 minutes. The time of the rat spent in the immobile state was measured.

serotonin 1A receptor = biological target: T1, serotonin 1A receptor (Rattus norvegicus, UniProt P19327); assay: Affinity for serotonin 1A receptor (inhibition of 3H-8-OH-DPAT binding to rat hippocampal membrane fraction); conditions: radioligand 3H-8-OH-DPAT, compounds tested as hydrochloride salt, read-out: 5-HT1A Ki
T1 construct: The resultant precipitate was used as a rat hippocampal membrane fraction in the following procedures; from tissue; host or cells: brain (hippocampal) membrane fraction of male SD rat
T1 sequence (P19327 1-422): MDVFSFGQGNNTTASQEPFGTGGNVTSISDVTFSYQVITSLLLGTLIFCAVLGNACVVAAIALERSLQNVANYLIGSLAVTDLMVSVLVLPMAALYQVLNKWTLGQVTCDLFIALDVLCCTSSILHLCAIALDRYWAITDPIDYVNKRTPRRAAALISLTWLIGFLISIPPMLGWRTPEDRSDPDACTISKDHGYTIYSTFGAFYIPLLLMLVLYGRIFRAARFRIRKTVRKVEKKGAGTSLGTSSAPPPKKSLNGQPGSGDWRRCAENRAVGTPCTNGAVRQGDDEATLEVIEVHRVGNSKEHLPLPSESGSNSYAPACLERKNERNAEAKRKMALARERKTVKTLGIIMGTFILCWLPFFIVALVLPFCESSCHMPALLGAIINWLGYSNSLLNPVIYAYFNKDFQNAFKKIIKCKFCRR

adrenaline α1 receptor = assay: Affinity for adrenaline α1 receptor (inhibition of 3H-Prazosin binding to rat cerebral cortex membrane fraction); conditions: for Ki: rat cerebral cortex membrane fraction, radioligand 3H-Prazosin, compounds tested as hydrochloride salt
Procedure: A male SD strain rat (7-week old; Charles River) was decapitated, and brain was taken out therefrom quickly. Cerebral cortex of the rat was separated and extracted at […] under ice cooling. The extracted cerebral cortex was frozen at -80 °C for 24 hours or longer. This frozen system was gradually thawed under ice cooling and then, 50 mM Tris-HCl buffer (pH 7.4) was added to the brain under ice cooling to obtain a suspension. The resultant suspension was homogenized, and then subjected to centrifugation at 48000 g for 15 minutes, to thereby obtain a precipitate. The precipitate thus obtained was washed twice and resuspended in the same Tris-HCl buffer as used above. […] The total volume amount of the reaction mixture was 1 ml. The resultant reaction mixture was subjected to suction filtration using a Whatman GF/C filter, and the filter was washed three times in 50 mM Tris-HCl buffer (pH 7.4, 4 ml), transferred to a vial and then, the radioactivity of Prazosin absorbed on the filter was determined using a liquid scintillation counter. […] Further, substantially the same procedure as mentioned above was repeated, except that, instead of Prazosin, a test compound was used in a predetermined concentration. […] The binding inhibition ratios were plotted, taking the logarithmic value of the concentration of the test compound as the abscissa value, and the binding inhibition ratio as the ordinate value. Then, a curve was drawn by non-linear least square method.

mice = assay: Toxicity test (intraperitoneal administration to mice); assay type: in vivo; conditions: intraperitoneally administered to mice, 100 mg/kg
[1] = Dose 30 mg/kg p.o. (hydrochloride), 30 mg/kg

Row | Ki (serotonin 1A receptor) | Ki (adrenaline α1 receptor) | Compound | other results
1 | 8.2 nM | 330 nM | O=C(NCCCCNCC1Cc2ccccc2O1)c1ccccc1F (stereo not shown) [Example 9, 2,3-dihydro-2-[N-{4-(2-fluorobenzoylamino)butyl}]aminomethylbenzo[b]furan] | –
2 | 3 nM | 420 nM | O=C(NCCCCNCC1Cc2ccccc2O1)c1cccc(F)c1 (stereo not shown) [Example 10, 2,3-dihydro-2-[N-{4-(3-fluorobenzoylamino)butyl}]aminomethylbenzo[b]furan] | –
3 | 3.7 nM | – | O=C(NCCNCC1Cc2ccccc2O1)c1ccccc1 (stereo not shown) [Example 19, 2-{N-(2-benzoylaminoethyl)}aminomethyl-2,3-dihydrobenzo[b]furan] | –
4 | 1.6 nM | – | Cc1cccc(C(=O)NCCNCC2Cc3ccccc3O2)c1 (stereo not shown) [Example 20, 2-[N-{2-(3-methylbenzoylamino)ethyl}]aminomethyl-2,3-dihydrobenzo[b]furan] | –
5 | 2 nM | – | O=C(NCCNCC1Cc2ccccc2O1)c1ccc(F)cc1 (stereo not shown) [Example 21, 2-[N-{2-(4-fluorobenzoyl)aminoethyl}]aminomethyl-2,3-dihydrobenzo[b]furan] | –
6 | 12 nM | – | O=C(NCCCNCC1Cc2ccccc2O1)c1ccc(F)cc1 (stereo not shown) [Example 23, 2-[N-{3-(4-fluorobenzoylamino)propyl}]aminomethyl-2,3-dihydrobenzo[b]furan] | –
7 | 11 nM | 760 nM | CN(CCCCNC(=O)c1ccccc1)CC1Cc2ccccc2O1 (stereo not shown) [Example 24, 2-{N-(4-benzoylaminobutyl)-N-methyl}aminomethyl-2,3-dihydrobenzo[b]furan] | –
8 | 5.4 nM | 260 nM | O=C(NCCCCNCC1Cc2ccccc2O1)c1ccccc1O (stereo not shown) [Example 29, 2,3-dihydro-2-[N-{4-(2-hydroxybenzoylamino)butyl}]aminomethylbenzo[b]furan] | –

The next lines start with the compound.

Row | Compound | Ki (serotonin 1A receptor) | Ki (adrenaline α1 receptor) | other results
9 | O=C(NCCCCNCC1Cc2ccccc2O1)c1ccccc1 (single isomer, unassigned; (+)) [Example 17, (+)-2-{N-(4-benzoylamino)butyl}aminomethyl-2,3-dihydrobenzo[b]furan] | – | – | Time spent in immobile state (male Wistar strain rats; Dose 60 mg/kg p.o. (hydrochloride)): 142 s; time spent in the immobile state (result in words) (male Wistar strain rats): remarkably shortened the time spent in the immobile state
10 | O=C(NCCCCNCC1Cc2ccccc2O1)c1ccccc1 (single isomer, unassigned; (-)) [Example 18, (-)-2-{N-(4-benzoylaminobutyl)}aminomethyl-2,3-dihydrobenzo[b]furan] | 1.3 nM | 270 nM | Time spent in immobile state (male Wistar strain rats; [1]): 142 s; time spent in the immobile state (result in words) (male Wistar strain rats): remarkably shortened the time spent in the immobile state
11 | O=C(NCCCCNCC1Cc2ccccc2O1)c1ccccc1 (stereo not shown) [Example 1, 2-{N-(4-benzoylaminobutyl)}aminomethyl-2,3-dihydrobenzo[b]furan] | 2.9 nM | 350 nM | mortality / toxicity (mice): none of the mice died; Time spent in immobile state (male Wistar strain rats; [1]): 117 s; time spent in the immobile state (result in words) (male Wistar strain rats): remarkably shortened the time spent in the immobile state
12 | O=S(=O)(NCCCCNCC1Cc2ccccc2O1)c1ccccc1 (stereo not shown) [Example 2, 2-{N-(4-benzenesulfonamidobutyl)}aminomethyl-2,3-dihydrobenzo[b]furan] | 11 nM | 270 nM | –
13 | Cc1cccc(C(=O)NCCCCNCC2Cc3ccccc3O2)c1 (stereo not shown) [Example 4, 2,3-dihydro-2-[N-{4-(3-methylbenzoylamino)butyl}]aminomethylbenzo[b]furan] | 1.2 nM | 270 nM | –
14 | Cc1ccc(C(=O)NCCCCNCC2Cc3ccccc3O2)cc1 (stereo not shown) [Example 5, 2,3-dihydro-2-[N-{4-(4-methylbenzoylamino)-butyl}]aminomethylbenzo[b]furan] | 12 nM | 290 nM | –
15 | COc1cccc(C(=O)NCCCCNCC2Cc3ccccc3O2)c1 (stereo not shown) [Example 7, 2,3-dihydro-2-[N-{4-(3-methoxybenzoylamino)butyl}]aminomethylbenzo[b]furan] | 4.3 nM | 340 nM | –
16 | O=C(NCCCCNCC1Cc2ccccc2O1)c1ccc(F)cc1 (stereo not shown) [Example 11, 2,3-dihydro-2-[N-{4-(4-fluorobenzoylamino)butyl}]aminomethylbenzo[b]furan] | 2.6 nM | 300 nM | –
17 | O=C(NCCCCNCC1Cc2ccccc2O1)c1cccc(C(F)(F)F)c1 (stereo not shown) [Example 13, 2,3-dihydro-2-[N-{4-(3-trifluoromethylbenzoylamino)butyl}]aminomethylbenzo[b]furan] | 5.3 nM | 380 nM | –
18 | O=C(NCCCCNCC1Cc2ccccc2O1)c1cccc([N+](=O)[O-])c1 (stereo not shown) [Example 15, 2,3-dihydro-2-[N-{4-(3-nitrobenzoylamino)butyl}]aminomethylbenzo[b]furan] | 11 nM | 250 nM | –
19 | CCN(CCCCNC(=O)c1ccccc1)CC1Cc2ccccc2O1 (stereo not shown) [Example 25, 2-{N-(4-benzoylaminobutyl)-N-ethyl}aminomethyl-2,3-dihydrobenzo[b]furan] | 3.1 nM | 710 nM | –
20 | ^3H-Prazosin [reference compound] | – | – | Kd (adrenaline α1 receptor; value used in the Ki calculation, read-out: Kd of the radioactive ligand for the adrenaline α1 receptor): 0.133 nM
